# Experimental data published in publication PMC3565340, “Crystal Structure of Dimeric Flavodoxin from Desulfovibrio gigas Suggests a Potential Binding Region for the Electron-Transferring Partner” (International Journal of Molecular Sciences, 2013).
# Target: T1, Fld (flavodoxin from Desulfovibrio gigas) (Megalodesulfovibrio gigas, UniProt Q01095)
# T1 construct: native, purified from anaerobically grown D. gigas cells; untagged; 146 residues, 15 kDa; residues 2-146 modelled; homodimer
# Experiment: X-ray crystal structure of the complex, […] Å
# Format: binding
# Settings: non-covalently bound native cofactor, co-purified; crystals at pH 6.5 (bis-Tris, PEG550, CaCl2); semiquinone-like state
# T1 sequence (Q01095 whole entry, the tested form may be a part): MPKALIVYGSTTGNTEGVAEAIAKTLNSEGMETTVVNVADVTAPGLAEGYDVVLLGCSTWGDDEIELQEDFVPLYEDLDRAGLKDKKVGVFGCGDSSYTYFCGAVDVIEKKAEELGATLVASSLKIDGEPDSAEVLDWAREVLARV
structure (smiles),measurement,value
"Cc1cc2nc3c(=O)[nH]c(=O)nc-3n(C[C@H](O)[C@H](O)[C@H](O)COP(=O)(O)O)c2cc1C [FMN, flavin mononucleotide]","X-ray crystal structure of the complex, 1.3 Å",the position of FMN was well defined by the electron density
